The source of these data is patent publication US20150126611A1, “3,3-DIPHENYL-N-(1-PHENYLETHYL) PROPAN-1-AMINE: AS A NEW SELECTIVE LIGAND OF THE SIGMA-1 RECEPTORS, WITH ANTI-APOPTOTIC (CYTOPROTECTIVE) PROPERTIES AND PROTOTYPICAL ANTICANCER ACTIVITY” (priority 2012, published 2015).

The structures appear in SMILES notation. Where only a bound is given, the exact number is not on record here.

The target of experiment [1] is sigma-1 receptors (Homo sapiens, UniProt Q99720). The experiment in a line: binding to sigma-1 receptors. The note with it: read-out: median concentrations of binding (IC50) for sigma-1 receptors.
Experiment [2] concerns the target sigma-2 receptors (Homo sapiens, UniProt Q5BJF2). The experiment in a line: binding to sigma-2 receptors. The note with it: read-out: median concentrations of binding (IC50) for sigma-2 receptors.
Experiment [3] has as its system site-2 of the sodium channels. The experiment in a line: affinity for site-2 of the sodium channels. The experiment is classed as binding.
A short description of experiment [4]: antagonism of pentylenetetrazole (PTZ) lethality in mice. In kind it is in vivo. The note with it: PTZ 130 mg/kg ip, DPPA 3 mg/kg po. The method, then:
(§1) More important- at lower doses: 0,01 to 1,00 mg/kg, intraperitoneal (ip) in mice—the cytoprotective activity of DPPA obtained by antagonism of the endoplasmic reticulum stress (ER stress) and amelioration of the cytoprotective autophagic processus of the cells and, more specifically, of neurons (in the neurodegenerative diseases and eldery). […] These cytoprotective activities of DPPA were completed, specifically in neurons, by inhibiting their entry in the cell cycle, as this entry is always fatal for neurons. In contrast, concerning the cancer cells, the above inhibition triggered the apoptotic processus and their death.

The test system of experiment [5] is mitochondrial toxicity of pentylenetetrazole (PTZ). The description is as above. In kind it is in vivo. The note with it: PTZ 130 mg/kg ip. The method, then: as §1
The test system of experiment [6] is Paclitaxel-induced neuropathic pain. The experiment in a line: neuropathic pain by sensibilisation with Paclitaxel, formalin injection in hind paw. The note with it: po, mice. The experiment is classed as in vivo. The method, then: Finally, in the experimental protocol of neuropathic pain by sensibilisation with Paclitaxel and evaluation of the neuropathic pain by injection of formalin in the hind paw of mice, the analgesic effect of DPPA was significative from 1.0 mg/kg (po) and was spectacular at higher doses (25 to 75 mg/kg, po). Indeed, the Paclitaxel+DPPA treated mice were less sensible to formalin than the control mice not treated with Paclitaxel.

Experiment [7] relates to scopolamine induced amnesia. The experiment in a line: scopolamine induced amnesia. The experiment is classed as in vivo. The note with it: mice.
Experiment [8] deals with dizocilpine induced amnesia. The experiment in a line: dizocilpine induced amnesia. The experiment is classed as in vivo. The note with it: mice.
The subject of experiment [9] is Aβ25-35 induced amnesia. The experiment in a line: amyloid Aβ25-35 induced amnesia (Y-maze and step-through). In kind it is in vivo, mice. The text has this:
Indeed, concerning the cytodegenerative diseases and more specifically the neurodegenerative diseases (Alzheimer, Huntington, Parkinson or Multiple Sclerosis), DPPA, in contrast to the symptomatic treatments used currently against the above diseases, antagonizes their pathophysiological causes ie., the endocellular biochemical stress and, concerning the neurons, also their fatal entry in the cell cycle. Of particular interest was the action of DPPA when it was coadministered with the inhibitors of the acetylcholinesterases (IAChEases) which are used as symptomatic drugs (principally Rivastigmine, Donepezil and Galantamine) against the Alzheimer's Disease (AD). […] Indeed, DPPA, via its antagonistic action on the M2 muscatinic autoreceptors of the brain cholinergic neurons (M2[−]), abolished the pro-neurodegenerative agonistic activity of the IAChEases on the hyperactivated (by AD or by the soluble Aβ25-35) cerebral M2 muscarinic autoreceptors, originating a new pharmacological approach (M2[−]) and (σ1[+]) against the neurodegenerative effects of Aβ25-35 in AD and also against the deleterious effect of the agonistic action of IAChEases on the M2 muscarinic brain autoreceptors, validating these drugs (IAChEases) as putative therapeutic agents against AD.

Experiment [10] concerns colon, prostate, ovarian, pancreas and hepatic cancer cells. The experiment in a line: in vitro anticancer activity. The experiment is classed as cell-based.
The test system of experiment [11] is cancer cells. The experiment in a line: anticancer activity in vitro and in vivo by inoculation of cancer cells in SCID mice. On the set-up: species or system immunosuppressed SCID mice. From the text:
The anticancer activity of DPPA was studied in vitro and in vivo by inoculation of cancer cells in immunosuppressed SCID mice. […] Moreover, even when the neuropathic pain, induced by the anticancer drugs was installed, DPPA antagonized it, by inhibition of the hypersensitive neurons injured by the neurotoxicity of the above anticancer drugs.

In experiment [12] the target is T1, M2 muscarinic receptors (Mus musculus, UniProt Q9ERZ4).
T1 construct: from tissue; host or cells: living mice, peripheral tissues
T1 sequence (Q9ERZ4 1-466): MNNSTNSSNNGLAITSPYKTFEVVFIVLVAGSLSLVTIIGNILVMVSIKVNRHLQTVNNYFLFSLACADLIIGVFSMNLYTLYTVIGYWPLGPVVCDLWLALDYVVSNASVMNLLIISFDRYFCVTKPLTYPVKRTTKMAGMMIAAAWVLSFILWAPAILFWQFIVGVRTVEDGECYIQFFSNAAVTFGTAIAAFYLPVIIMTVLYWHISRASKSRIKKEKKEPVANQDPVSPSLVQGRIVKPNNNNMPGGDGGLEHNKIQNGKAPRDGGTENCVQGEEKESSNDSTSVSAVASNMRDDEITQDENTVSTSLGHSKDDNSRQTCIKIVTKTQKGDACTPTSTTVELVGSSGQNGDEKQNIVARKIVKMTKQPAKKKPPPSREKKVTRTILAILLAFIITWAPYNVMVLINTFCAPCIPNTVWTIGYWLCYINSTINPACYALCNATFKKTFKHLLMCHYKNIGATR
The experiment in a line: peripheral M2 muscarinic antagonism in mice. The experiment is classed as in vivo. The note with it: 0.1 to 10 mg/kg, ip.

Experiment [13] has as its target T2, M3 muscarinic receptors (Mus musculus, UniProt Q9ERZ3).
T2 construct: from tissue; host or cells: living mice, peripheral tissues
The experiment in a line: peripheral M3 muscarinic antagonism in mice. In kind it is in vivo. The note with it: 0.1 to 10 mg/kg, ip.

Experiment [14] has as its system immobility in forced swimming. The note with it: po, mice, Porsolt; cited from earlier work.

Sequence of sigma-2 receptors (Q5BJF2 whole entry): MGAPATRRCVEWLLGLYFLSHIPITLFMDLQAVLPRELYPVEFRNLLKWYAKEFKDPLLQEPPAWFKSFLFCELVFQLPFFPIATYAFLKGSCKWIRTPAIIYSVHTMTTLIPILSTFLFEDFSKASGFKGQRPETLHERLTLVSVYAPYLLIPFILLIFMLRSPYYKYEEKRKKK
Sequence of sigma-1 receptors (Q99720 whole entry): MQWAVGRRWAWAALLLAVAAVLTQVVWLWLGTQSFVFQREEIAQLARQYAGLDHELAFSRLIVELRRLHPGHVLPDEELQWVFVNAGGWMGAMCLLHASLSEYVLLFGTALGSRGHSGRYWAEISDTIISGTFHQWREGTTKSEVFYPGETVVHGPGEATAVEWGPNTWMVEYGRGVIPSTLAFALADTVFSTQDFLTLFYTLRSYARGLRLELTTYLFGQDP
T2 sequence (Q9ERZ3 whole entry): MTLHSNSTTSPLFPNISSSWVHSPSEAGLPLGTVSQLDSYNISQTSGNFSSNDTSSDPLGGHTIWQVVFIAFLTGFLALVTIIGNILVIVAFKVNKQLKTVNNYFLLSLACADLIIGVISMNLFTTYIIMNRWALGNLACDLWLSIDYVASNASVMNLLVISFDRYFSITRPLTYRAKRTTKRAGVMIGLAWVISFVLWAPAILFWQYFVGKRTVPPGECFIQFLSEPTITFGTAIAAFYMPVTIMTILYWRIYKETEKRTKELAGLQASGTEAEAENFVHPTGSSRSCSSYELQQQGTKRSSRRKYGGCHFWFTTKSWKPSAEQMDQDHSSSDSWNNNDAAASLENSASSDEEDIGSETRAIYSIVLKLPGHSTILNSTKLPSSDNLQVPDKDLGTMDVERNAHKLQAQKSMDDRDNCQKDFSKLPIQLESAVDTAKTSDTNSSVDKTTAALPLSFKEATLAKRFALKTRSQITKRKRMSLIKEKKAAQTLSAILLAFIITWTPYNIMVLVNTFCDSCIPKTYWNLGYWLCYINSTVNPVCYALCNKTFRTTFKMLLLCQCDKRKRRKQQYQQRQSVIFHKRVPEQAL

Consider `CC(NCCC(c1ccccc1)c1ccccc1)c1ccccc1` (centres unmarked) [DPPA, 3,3-diphenyl-N-(1-phenylethyl) propan-1-amine], for which the IC50 in experiment [1] is 14 to 18 nM; in experiment [2], 730 to 850 nM; in experiment [3] it was 290 nM. In addition, the “increase of the latency of lethality of PTZ” value in experiment [4] is 5 fold; in experiment [5] (DPPA 10 mg/kg po) it was 10 fold; in [5] (DPPA 30 mg/kg po) it was 20 fold. Besides, in [6] (25 to 75 mg/kg), the “analgesic effect at higher doses” value was “spectacular”. The “dose from which the analgesic effect was significative” value in experiment [6] (Paclitaxel sensibilisation, formalin in hind paw) is at least 1.0 mg/kg. Besides, the “antagonism of scopolamine induced amnesia” value in [7] is listed as “antagonism”. In [8], the “antagonism of dizocilpine induced amnesia” value is “antagonism”. Besides, in experiment [9] (intracerebral soluble Aβ25-35, mice, Y-maze and step-through), the “antiamnesic action on coadministration with IAChEases (Rivastigmine or Donepezil)” value is “higher than the sum of the antiamnesic effects of DPPA and IAChEases”. Besides, the “antagonism of amyloids Aβ25-35 induced amnesia” value in [9] (mice) was “antagonism”. The “anticancer activity on cancer cells in vitro” value in [10] was “demonstrated the anticancer activity”. Moreover, the “anticancer activity versus clinically used anticancer drugs” value in experiment [11] was “lower than those of the clinically used anticancer drugs”. In experiment [12], the “effects on M2 muscarinic receptors in the periphery” value is given as “antagonistic effects”. Further, the “effects on M3 muscarinic receptors in the periphery” value in [13] is on record as “antagonistic effects”. The “dose at which anti-immobility properties are significative” value in [14] is given as “more than 10 mg/kg”.
